Like-named read-outs stand apart in the source and are kept apart here.
How the values were obtained:
Assay in all cases: Kinase selectivity, P33-radiolabeled assay
Assay type in all cases: biochemical
Conditions in all cases: 10 μM ATP
DYRK1B = biological target: T1, DYRK1B (Homo sapiens, UniProt Q9Y463)
T1 construct: purchased Reaction Biology Corp
Summary of the method: (§1)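 Activity relative to DMSO controls (%) was measured for compound at 10 μM. Assays ran at 10 μM ATP, in duplicate.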

PAK2 = biological target: T2, PAK2 (Homo sapiens, UniProt Q13177)
T2 construct: purchased Reaction Biology Corp
Summary of the method: as §1

MLCK2/MYLK2 = biological target: T3, MLCK2/MYLK2 (Homo sapiens, UniProt Q9H1R3)
T3 construct: purchased Reaction Biology Corp
Summary of the method: as §1

WNK3 = biological target: T4, WNK3 (Homo sapiens, UniProt Q9BYP7)
T4 construct: purchased Reaction Biology Corp
Summary of the method: as §1

CHK1 = biological target: T5, CHK1 (Homo sapiens, UniProt O14757)
T5 construct: purchased Reaction Biology Corp
T5 sequence (O14757 1-476): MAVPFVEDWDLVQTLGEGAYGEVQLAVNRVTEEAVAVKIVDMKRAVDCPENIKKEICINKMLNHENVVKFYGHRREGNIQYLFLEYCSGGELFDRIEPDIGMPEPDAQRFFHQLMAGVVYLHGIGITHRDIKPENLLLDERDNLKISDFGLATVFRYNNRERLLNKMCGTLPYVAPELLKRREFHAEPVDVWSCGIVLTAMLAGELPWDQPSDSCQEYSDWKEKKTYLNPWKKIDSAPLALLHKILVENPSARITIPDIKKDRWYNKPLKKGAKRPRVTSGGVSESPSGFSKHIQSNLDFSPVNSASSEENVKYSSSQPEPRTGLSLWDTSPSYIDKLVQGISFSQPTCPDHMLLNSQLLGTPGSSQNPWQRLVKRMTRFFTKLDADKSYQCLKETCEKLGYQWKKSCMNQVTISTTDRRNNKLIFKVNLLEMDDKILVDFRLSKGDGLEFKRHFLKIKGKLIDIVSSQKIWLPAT
Summary of the method: as §1

RON/MST1R = biological target: T6, RON/MST1R (Homo sapiens, UniProt Q04912)
T6 construct: purchased Reaction Biology Corp
Summary of the method: as §1

ARAF = biological target: T7, ARAF (Homo sapiens, UniProt P10398)
T7 construct: purchased Reaction Biology Corp
T7 sequence (P10398 1-606): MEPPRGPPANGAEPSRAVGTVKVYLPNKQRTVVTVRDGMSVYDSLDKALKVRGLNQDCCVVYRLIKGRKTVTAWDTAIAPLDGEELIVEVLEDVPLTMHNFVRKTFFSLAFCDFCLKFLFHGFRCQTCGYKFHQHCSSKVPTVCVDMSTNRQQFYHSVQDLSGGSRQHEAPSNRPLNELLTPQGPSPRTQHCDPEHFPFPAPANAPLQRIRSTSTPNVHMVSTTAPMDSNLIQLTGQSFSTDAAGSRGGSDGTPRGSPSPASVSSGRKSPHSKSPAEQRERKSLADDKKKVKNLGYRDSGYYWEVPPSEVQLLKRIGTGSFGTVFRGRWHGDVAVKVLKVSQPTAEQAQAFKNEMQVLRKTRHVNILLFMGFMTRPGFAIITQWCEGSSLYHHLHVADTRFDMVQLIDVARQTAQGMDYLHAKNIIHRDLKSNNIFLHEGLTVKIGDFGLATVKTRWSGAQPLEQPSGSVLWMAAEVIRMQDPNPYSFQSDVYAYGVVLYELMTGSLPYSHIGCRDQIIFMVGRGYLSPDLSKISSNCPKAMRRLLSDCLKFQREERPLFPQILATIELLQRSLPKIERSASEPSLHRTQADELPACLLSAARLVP
Summary of the method: as §1

TAOK3/JIK = biological target: T8, TAOK3/JIK (Homo sapiens, UniProt Q9H2K8)
T8 construct: purchased Reaction Biology Corp
T8 sequence (Q9H2K8 1-898): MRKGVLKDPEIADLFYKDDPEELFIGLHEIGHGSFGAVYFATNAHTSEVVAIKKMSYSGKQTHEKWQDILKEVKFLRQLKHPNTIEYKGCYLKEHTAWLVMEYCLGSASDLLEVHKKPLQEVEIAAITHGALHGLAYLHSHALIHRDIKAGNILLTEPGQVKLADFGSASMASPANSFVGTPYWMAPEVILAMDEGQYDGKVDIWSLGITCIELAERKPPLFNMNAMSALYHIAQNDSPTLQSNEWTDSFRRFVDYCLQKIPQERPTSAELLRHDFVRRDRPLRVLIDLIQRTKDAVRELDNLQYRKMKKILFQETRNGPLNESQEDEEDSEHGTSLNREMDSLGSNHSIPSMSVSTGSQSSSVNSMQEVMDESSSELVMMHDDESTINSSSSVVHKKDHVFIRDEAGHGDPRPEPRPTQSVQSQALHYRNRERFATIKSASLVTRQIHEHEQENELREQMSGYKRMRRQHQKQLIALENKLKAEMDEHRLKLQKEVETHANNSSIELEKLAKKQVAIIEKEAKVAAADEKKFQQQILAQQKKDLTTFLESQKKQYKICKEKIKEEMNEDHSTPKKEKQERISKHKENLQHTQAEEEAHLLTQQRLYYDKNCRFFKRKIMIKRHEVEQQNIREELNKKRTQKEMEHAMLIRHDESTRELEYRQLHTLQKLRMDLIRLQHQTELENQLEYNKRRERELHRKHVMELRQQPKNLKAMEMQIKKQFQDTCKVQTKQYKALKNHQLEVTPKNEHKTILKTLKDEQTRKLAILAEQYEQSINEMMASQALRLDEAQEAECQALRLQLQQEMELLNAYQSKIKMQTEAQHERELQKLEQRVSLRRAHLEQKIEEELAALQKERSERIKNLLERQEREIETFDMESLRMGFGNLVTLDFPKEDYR
Summary of the method: as §1

HIPK2 = biological target: T9, HIPK2 (Homo sapiens, UniProt Q9H2X6)
T9 construct: purchased Reaction Biology Corp
Summary of the method: as §1

ERBB4/HER4 = biological target: T10, ERBB4/HER4 (Homo sapiens, UniProt Q15303)
T10 construct: purchased Reaction Biology Corp
Summary of the method: as §1

PKCd = biological target: T11, PKCd (Homo sapiens, UniProt Q05655)
T11 construct: purchased Reaction Biology Corp
Summary of the method: as §1

[1] = read-out: % Enzyme Activity (relative to DMSO controls) AVG
[2] = read-out: % Enzyme Activity (relative to DMSO controls) Data 1
[3] = read-out: % Enzyme Activity (relative to DMSO controls) Data 2

T11 sequence (Q05655 whole entry): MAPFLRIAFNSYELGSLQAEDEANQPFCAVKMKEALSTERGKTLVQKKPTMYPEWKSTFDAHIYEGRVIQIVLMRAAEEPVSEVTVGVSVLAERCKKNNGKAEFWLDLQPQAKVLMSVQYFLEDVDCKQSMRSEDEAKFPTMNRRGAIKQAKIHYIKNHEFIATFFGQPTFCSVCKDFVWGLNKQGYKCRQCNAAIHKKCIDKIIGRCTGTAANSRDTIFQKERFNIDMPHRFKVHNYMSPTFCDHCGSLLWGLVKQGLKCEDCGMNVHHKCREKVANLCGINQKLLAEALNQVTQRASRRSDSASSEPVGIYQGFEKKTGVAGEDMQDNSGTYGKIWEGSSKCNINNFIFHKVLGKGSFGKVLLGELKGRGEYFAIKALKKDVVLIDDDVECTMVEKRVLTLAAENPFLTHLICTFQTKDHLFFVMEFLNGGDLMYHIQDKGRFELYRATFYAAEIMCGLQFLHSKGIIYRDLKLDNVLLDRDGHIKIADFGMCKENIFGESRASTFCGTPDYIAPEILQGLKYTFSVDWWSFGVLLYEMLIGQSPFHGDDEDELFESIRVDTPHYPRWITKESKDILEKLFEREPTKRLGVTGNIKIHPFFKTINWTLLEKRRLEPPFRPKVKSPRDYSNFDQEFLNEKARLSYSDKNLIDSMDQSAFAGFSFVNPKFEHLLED
T9 sequence (Q9H2X6 whole entry): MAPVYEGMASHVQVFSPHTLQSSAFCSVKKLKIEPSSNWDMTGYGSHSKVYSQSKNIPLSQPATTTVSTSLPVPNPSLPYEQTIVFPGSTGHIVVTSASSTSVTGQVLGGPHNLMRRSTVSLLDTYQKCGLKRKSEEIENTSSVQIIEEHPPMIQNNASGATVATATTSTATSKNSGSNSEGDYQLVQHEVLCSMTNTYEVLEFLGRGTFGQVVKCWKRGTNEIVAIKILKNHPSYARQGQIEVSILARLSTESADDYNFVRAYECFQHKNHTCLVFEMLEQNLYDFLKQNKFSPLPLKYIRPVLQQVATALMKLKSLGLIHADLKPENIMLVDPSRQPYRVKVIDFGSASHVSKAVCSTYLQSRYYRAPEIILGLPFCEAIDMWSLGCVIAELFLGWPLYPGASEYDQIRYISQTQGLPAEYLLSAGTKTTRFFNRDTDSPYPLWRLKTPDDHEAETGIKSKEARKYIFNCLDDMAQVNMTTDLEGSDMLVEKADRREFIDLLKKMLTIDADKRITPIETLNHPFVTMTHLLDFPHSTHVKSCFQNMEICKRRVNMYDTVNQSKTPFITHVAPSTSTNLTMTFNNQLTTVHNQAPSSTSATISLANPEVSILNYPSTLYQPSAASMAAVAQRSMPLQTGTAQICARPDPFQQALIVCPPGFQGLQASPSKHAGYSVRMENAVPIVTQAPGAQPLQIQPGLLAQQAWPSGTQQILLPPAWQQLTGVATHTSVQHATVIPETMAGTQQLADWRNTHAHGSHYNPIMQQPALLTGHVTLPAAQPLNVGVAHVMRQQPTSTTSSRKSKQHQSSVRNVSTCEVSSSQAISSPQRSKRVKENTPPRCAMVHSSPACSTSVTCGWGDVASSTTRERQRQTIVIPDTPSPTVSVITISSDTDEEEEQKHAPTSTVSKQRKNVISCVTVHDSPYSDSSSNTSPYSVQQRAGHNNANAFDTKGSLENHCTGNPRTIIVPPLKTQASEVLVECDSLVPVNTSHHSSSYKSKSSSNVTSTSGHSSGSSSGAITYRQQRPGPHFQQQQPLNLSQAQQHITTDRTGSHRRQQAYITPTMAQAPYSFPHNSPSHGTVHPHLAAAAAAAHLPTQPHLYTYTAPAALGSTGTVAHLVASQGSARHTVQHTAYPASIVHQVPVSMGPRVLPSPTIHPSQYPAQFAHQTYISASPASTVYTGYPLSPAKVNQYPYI
T10 sequence (Q15303 26-1308): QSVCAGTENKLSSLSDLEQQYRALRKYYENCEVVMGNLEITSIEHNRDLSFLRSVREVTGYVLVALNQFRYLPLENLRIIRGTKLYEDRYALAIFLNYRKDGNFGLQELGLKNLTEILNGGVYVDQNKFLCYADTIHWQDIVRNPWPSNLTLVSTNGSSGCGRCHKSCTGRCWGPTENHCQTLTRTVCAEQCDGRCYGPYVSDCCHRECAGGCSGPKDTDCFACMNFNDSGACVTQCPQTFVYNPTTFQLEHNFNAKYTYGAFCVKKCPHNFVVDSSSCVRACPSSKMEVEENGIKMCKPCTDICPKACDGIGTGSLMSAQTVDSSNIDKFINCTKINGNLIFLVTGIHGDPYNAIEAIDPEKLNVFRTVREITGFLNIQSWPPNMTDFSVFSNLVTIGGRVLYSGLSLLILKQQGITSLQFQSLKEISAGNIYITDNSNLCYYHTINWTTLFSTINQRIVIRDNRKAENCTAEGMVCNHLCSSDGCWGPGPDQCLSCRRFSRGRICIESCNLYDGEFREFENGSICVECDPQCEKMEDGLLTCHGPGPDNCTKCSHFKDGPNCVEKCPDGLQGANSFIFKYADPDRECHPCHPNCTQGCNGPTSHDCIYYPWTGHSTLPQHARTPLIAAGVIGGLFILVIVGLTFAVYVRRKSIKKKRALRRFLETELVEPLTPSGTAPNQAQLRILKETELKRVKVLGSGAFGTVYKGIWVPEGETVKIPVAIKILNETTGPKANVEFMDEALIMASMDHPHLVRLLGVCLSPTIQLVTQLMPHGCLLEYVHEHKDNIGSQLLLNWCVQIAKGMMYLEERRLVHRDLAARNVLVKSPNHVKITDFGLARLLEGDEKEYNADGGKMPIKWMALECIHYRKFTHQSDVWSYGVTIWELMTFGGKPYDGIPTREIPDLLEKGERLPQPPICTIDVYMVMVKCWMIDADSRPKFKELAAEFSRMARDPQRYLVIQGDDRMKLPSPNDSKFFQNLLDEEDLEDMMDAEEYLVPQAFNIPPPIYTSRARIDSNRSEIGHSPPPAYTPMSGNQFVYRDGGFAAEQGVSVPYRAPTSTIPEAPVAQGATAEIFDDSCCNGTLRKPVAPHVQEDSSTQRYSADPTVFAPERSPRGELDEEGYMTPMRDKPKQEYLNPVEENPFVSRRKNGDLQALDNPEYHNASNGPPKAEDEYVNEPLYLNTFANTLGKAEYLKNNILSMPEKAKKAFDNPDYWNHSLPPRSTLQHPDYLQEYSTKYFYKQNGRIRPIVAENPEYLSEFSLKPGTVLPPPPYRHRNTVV
T1 sequence (Q9Y463 whole entry): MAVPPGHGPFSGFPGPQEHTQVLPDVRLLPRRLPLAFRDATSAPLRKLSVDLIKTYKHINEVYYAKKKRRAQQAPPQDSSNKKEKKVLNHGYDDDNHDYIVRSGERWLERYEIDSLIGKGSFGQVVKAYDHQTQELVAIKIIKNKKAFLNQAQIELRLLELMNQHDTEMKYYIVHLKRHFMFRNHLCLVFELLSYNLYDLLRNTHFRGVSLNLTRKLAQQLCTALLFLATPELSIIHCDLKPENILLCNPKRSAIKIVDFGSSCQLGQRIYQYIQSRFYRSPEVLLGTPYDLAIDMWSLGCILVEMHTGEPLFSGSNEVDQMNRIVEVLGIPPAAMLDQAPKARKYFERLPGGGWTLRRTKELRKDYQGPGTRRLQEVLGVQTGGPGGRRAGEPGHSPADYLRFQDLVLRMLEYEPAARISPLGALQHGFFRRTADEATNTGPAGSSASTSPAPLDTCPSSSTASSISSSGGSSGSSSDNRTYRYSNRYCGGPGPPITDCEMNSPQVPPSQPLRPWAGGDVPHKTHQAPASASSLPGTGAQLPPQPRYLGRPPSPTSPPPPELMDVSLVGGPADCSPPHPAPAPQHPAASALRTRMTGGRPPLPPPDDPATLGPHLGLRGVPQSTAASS
T2 sequence (Q13177 whole entry): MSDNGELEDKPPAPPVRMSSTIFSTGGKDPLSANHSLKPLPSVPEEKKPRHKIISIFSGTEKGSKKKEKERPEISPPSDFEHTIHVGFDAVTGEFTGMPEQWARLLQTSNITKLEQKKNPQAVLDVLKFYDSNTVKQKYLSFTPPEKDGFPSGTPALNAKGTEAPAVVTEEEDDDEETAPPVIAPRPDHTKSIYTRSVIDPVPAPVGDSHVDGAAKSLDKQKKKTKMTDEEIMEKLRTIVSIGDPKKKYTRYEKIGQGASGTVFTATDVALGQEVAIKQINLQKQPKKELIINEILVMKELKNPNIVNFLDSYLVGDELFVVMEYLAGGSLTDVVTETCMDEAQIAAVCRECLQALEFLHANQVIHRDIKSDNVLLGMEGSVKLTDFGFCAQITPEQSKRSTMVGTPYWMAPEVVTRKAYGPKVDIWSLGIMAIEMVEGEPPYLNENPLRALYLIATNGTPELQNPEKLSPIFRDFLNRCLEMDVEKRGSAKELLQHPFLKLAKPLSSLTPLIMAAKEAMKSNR

Work on CC(C)(C)C(=O)N1N=CC[C@H]1c1ccccc1 [GSK′963] yielded a remaining activity at 10 µM (DYRK1B; [1]) of 102%, a remaining activity at 10 µM (DYRK1B; [2]) of 103% and a remaining activity at 10 µM (DYRK1B; [3]) of 101%. The remaining activity at 10 µM (PAK2; [1]) was 95.8%, the remaining activity at 10 µM (PAK2; [2]) was 94.9% and the remaining activity at 10 µM (PAK2; [3]) was 96.8%. For the same molecule, the remaining activity at 10 µM (MLCK2/MYLK2; [1]) was 104%, the remaining activity at 10 µM (MLCK2/MYLK2; [2]) was 106% and the remaining activity at 10 µM (MLCK2/MYLK2; [3]) was 102%. It also gave a remaining activity at 10 µM (WNK3; [1]) of 100%, a remaining activity at 10 µM (WNK3; [2]) of 97.5% and a remaining activity at 10 µM (WNK3; [3]) of 103%. The remaining activity at 10 µM (CHK1; [1]) was 115%, the remaining activity at 10 µM (CHK1; [2]) was 122% and the remaining activity at 10 µM (CHK1; [3]) was 109%. For the same molecule, the remaining activity at 10 µM (RON/MST1R; [1]) was 104%, the remaining activity at 10 µM (RON/MST1R; [2]) was 106% and the remaining activity at 10 µM (RON/MST1R; [3]) was 102%. It also gave a remaining activity at 10 µM (ARAF; [1]) of 93.7%, a remaining activity at 10 µM (ARAF; [2]) of 94.6% and a remaining activity at 10 µM (ARAF; [3]) of 92.9%. The remaining activity at 10 µM (TAOK3/JIK; [1]) was 98.2%, the remaining activity at 10 µM (TAOK3/JIK; [2]) was 99.2% and the remaining activity at 10 µM (TAOK3/JIK; [3]) was 97.3%. It also gave a remaining activity at 10 µM (HIPK2; [1]) of 103%, a remaining activity at 10 µM (HIPK2; [2]) of 101% and a remaining activity at 10 µM (HIPK2; [3]) of 104%. It also gave a remaining activity at 10 µM (ERBB4/HER4; [1]) of 102%, a remaining activity at 10 µM (ERBB4/HER4; [2]) of 101% and a remaining activity at 10 µM (ERBB4/HER4; [3]) of 104%. The remaining activity at 10 µM (PKCd; [1]) was 106%, the remaining activity at 10 µM (PKCd; [2]) was 106% and the remaining activity at 10 µM (PKCd; [3]) was 107%.

From PMC4979471 (Cell Death Discovery, 2015)
